Assay results: patent US20220259558A1, “METHODS FOR OBTAINING EYE FIELD PROGENITOR CELLS FROM HUMAN PLURIPOTENT STEM CELLS” (Novo Nordisk A/S, priority 2019, published 2022)

Legend:
[1] = system: human embryonic stem cells (hESC); test: Initial attachment of hESC on different laminins after single cell seeding (brightfield); type: cell-based; details: after 12 hours; hESC grown and maintained on LN-521, single cell seeding
Procedure: LN-332 can be used for further differentiation.
An internally generated hESC line was maintained on human recombinant laminin (hrLN) coated plates (Biolaminin 521 LN, Biolamina) in NutriStem hPSC XF medium (Biological Industries), in a 5% CO2 incubator at 37° C. and passaged enzymatically at 1:10-1:20 ratio every 3-5 days. For passaging, confluent cultures were washed once with phosphate buffered saline (PBS) without calcium and magnesium ions and incubated for 5 min at 37° C. with TrypLE Select (GIBCO, Thermo Fisher Scientific). The enzyme was then carefully removed and the cells were collected in fresh NutriStem hPSC XF medium by gentle pipetting to obtain single cell suspension and the required volume plated on a freshly hrLN-521 coated dish. After passage, the medium was replaced with fresh prewarmed NutriStem hPSC XF medium and changed daily.
hESC-RPE monolayer differentiation hESC were plated at a cell density of 5.5×10^4 cells/cm2 on hrLN-332 laminin coated dishes at 10 μg/mL (Biolaminin 332 LN, Biolamina) using NutriStem hPSC XF medium. Rho-kinase inhibitor (Y-27632, Millipore) at a concentration of 10 μM was added during the first 24 hours, while cells were kept at 37° C., 5% CO2. After 24 hours, the culture medium was replaced with differentiation medium according to the examples. […]

hESC [2] = test: Differentiation of hESC into eye field progenitor cells, marker-positive cells by immunofluorescence; type: cell-based, human
Excerpt: FIGS. 2A and 2B show the effect of human BMP5 and Activin A on the differentiation of hESC into VSX2 and MITF positive cells. Immunofluorescence showing conditions 1 and 2, without BMP5 or Activin A, with poor levels of MITF or VSX2. In contrast, the addition of BMP5 from day 12 (conditions 3 and 4), increase the number of cells positive for MITF and VSX2. The addition of Activin A from day 15, in combination with BMP5, has no clear additional effect. In contrast, the use of Activin A alone from day 12, or combination with BMP5 from day 15 (conditions 5 and 6), generates a lower number of cells positive for MITF and VSX2. […] The combination of IHH (Indian Hedgehog) and DKK2 (Dickkopf WNT Signaling Pathway Inhibitor 2) might help in the generation of MITF/VSX2 positive cells.
An initial treatment with the small molecule GW788388, NOGGIN and Endo IWR1 for 12 days, followed by a treatment with BMP5, IHH and DKK2 generates high numbers of PAX6/OTX2 double positive cells addressed by immunofluorescence. DAPI is used for nuclear staining of all cells.
The use of BMP5 induces the generation of MITF and VSX2 positive cells (second row), addressed by immunofluorescence, indicating the generation of neural retina progenitor cells. In contrast, the addition of the GSK3 inhibitor CHIR99021 (lower row) drastically blocks the expression of VSX2, and reinforces the expression of MITF and the generation of MITF positive cells with cobblestone morphology. This is indicative of RPE progenitor cells. First row, control without BMP5. DAPI is used for nuclear staining of all cells.
(§1) hESC-RPE monolayer differentiation hESC were plated at a cell density of 5.5×10^4 cells/cm2 on hrLN-332 laminin coated dishes at 10 μg/mL (Biolaminin 332 LN, Biolamina) using NutriStem hPSC XF medium. Rho-kinase inhibitor (Y-27632, Millipore) at a concentration of 10 μM was added during the first 24 hours, while cells were kept at 37° C., 5% CO2. After 24 hours, the culture medium was replaced with differentiation medium according to the examples. The differentiation media “GMEM” in the following examples is always supplemented with Penicillin-Streptomycin solution (20 units/ml; Thermo Fisher), beta-Mercaptoethanol (0.5 mM; Thermo Fisher), Sodium pyruvate (1 mM; Thermo Fisher), Non-Essential Amino Acids (1×; Thermo Fisher).
In order to differentiate hESC into eye progenitor cells, we tested the effect of BMP5 in different conditions in combination with small molecules and recombinant proteins that mimics developmental cues. We relied on sequential activation and/or repression of the common developmental pathways associated to eye development for our differentiation protocol and combined with activation of BMP pathway by BMP5. After cell dissociation, hESC line expanded on LN-521 were dissociated to single cells and seeded on LN-332 for differentiation. These cells adapted well to this laminin.
We decided to explore the inhibition of GSK3 with the small molecule CHIR99021 in combination with BMP5, and to remove the WNT inhibitor Endo IWR1 from the protocol, as GSK3 inhibition might activate canonical (beta-Catenin dependent) WNT signalling.
We decided to explore the effect of another SMAD inhibitor, RepSOX, in combination with NOGGIN, and to combine with BMP5 and CHIR99021 to obtain RPE progenitor cells positive for MITF. This will indicate if different SMAD inhibitors could be used in our BMP5-based protocol.

hESC [3] = test: RNA (gene) expression analysis of differentiated hESC, real-time PCR; type: cell-based, human; details: for induction of gene expression of markers of eye field progenitor cells with a RPE progenitor cell identity: comparison of BMPs, day 7-21, with CHIR99021 day 12-21, single SMAD inhibition
Procedure: The graphs indicate the cycle threshold (CT) values from real-time polymerase chain reaction (PCR). Differentiated cells with BMP5 are collected at day 21 and RNA extracted, converted to cDNA and RNA expression analyses performed. hESC are used as comparison and CT values are inversely proportional to mRNA level.
RNA expression of RPE progenitor cell-related genes was quantified. Note that 200 ng/ml and 1000 ng/ml of BMP5 treatment promote the expression of RPE progenitor genes.
RNA expression of neural retina progenitor genes was quantified. 200 ng/ml and 1000 ng/ml of BMP5 treatment promote the expression of neural retina progenitor cell genes.
The effect of BMP5 is compared to that of BMP4, BMP7 and BMP4/7 heterodimer.
as §1
We analyzed gene expression at day 21 on cells that were generated with the following protocol, […]

hESC [4] = test: Protein expression of hESC-derived progenitor cells by flow cytometry; type: cell-based, human; details: after 21 days, single SMAD inhibitor (GW788388)
Procedure: More than 40% of the cells show co-expression of the markers PAX6/MITF.
More than 50% of the cells show co-expression of the markers PAX6/VSX2.
as §1
In order to provide quantitative data of the cells generated with our BMP5-based protocol, we analysed the eye field progenitor cells generated under treatment with BMP5 for NR progenitor cells or with BMP5 and CHIR99021 for RPE progenitor cells by flow cytometry. Moreover, we tested single SMAD inhibition by removing NOGGIN from the protocol.

[5] = Example 1, immunofluorescence, factor from day 12 after NOGGIN+GW788388+Endo IWR1, to day 21

LN-332: human recombinant laminin isoform 332 (Biolaminin 332 LN, Biolamina), coating matrix
initial attachment of hESC [1]: excellent attachment

BMP5: human bone morphogenetic protein 5, recombinant protein (R&D systems), SEQ ID NO: 1
generation of MITF and VSX2-positive cells (hESC [2]; [5]): generated MITF and VSX2-positive cells
generation of MITF and VSX2-positive cells (hESC [2]; Example 2, dual SMAD inhibition (NOGGIN+GW788388), BMP5 from day 7 to day 21): strongly generated MITF and VSX2-positive cells
generation of double PAX6/OTX2 positive cells (hESC [2]; immunofluorescence, GW788388, NOGGIN and Endo IWR1 for 12 days, then BMP5, IHH and DKK2): induces the generation of double PAX6/OTX2 positive cells
best condition (BMP5 concentration) to induce eye field progenitor cells with a RPE progenitor cell identity (hESC [3]; 0, 0.1, 200 and 1000 ng/ml tested, day 7-21, with CHIR99021 day 12-21, gene expression day 21): 200 ng/mL
best condition (BMP5 concentration) to generate eye field progenitor cells with a NR progenitor cell identity (hESC [3]; 0, 0.1, 200 and 1000 ng/ml tested, day 7-21, VSX2 gene expression day 21): 200 ng/mL
effect on generation of eye field progenitor cells (hESC [3]; BMP5 at 1000 ng/ml): positive but milder effect
induction of gene expression of markers of eye field progenitor cells with a RPE progenitor cell identity (hESC [3]): superior effect
MITF, PAX6 and VSX2 mRNA levels (hESC [3]; day 21, CT values, compared to hESC): increased compared to hESC
PAX6-positive cells (hESC [4]): more than 95%
double positive cells PAX6/VSX2 (hESC [4]): more than 50%

B1: DKK2: Dickkopf WNT Signaling Pathway Inhibitor 2, recombinant protein (protein, UniProt Q9UBU2 34-259, looked up)
Dickkopf-related protein 2: KLNSIKSSLGGETPGQAANRSAGMYQGLAFGGSKKGKNLGQAYPCSSDKECEVGRYCHSPHQGSSACMVCRRKKKRCHRDGMCCPSTRCNNGICIPVTESILTPHIPALDGTRHRDRNHGHYSNHDLGWQNLGRPHTKMSHIKGHEGDPCLRSSDCIEGFCCARHFWTKICKPVLHQGEVCTKQRKKGSHGLEIFQRCDCAKGLSCKVWKDATYSSKARLHVCQKI
generation of MITF and VSX2-positive cells (hESC [2]; [5]): not sufficient to generate MITF or VSX2-positive cells

B2: BMP7: member of the BMP family compared to BMP5 (protein, UniProt P18075 293-431, looked up)
Bone morphogenetic protein 7: STGSKQRSQNRSKTPKNQEALRMANVAENSSSDQRQACKKHELYVSFRDLGWQDWIIAPEGYAAYYCEGECAFPLNSYMNATNHAIVQTLVHFINPETVPKPCCAPTQLNAISVLYFDDSSNVILKKYRNMVVRACGCH
induction of gene expression of markers of eye field progenitor cells with a RPE progenitor cell identity (hESC [3]): better than BMP4

B3: BMP4: member of the BMP family compared to BMP5 (protein, UniProt P12644 293-408, looked up)
Bone morphogenetic protein 4: SPKHHSQRARKKNKNCRRHSLYVDFSDVGWNDWIVAPPGYQAFYCHGDCPFPLADHLNSTNHAIVQTLVNSVNSSIPKACCVPTELSAISMLYLDEYDKVVLKNYQEMVVEGCGCR
induction of gene expression of markers of eye field progenitor cells with a RPE progenitor cell identity (hESC [3]): least capacity to induce these markers

B4: Activin A: Recombinant protein (R&D systems/Peprotech) (protein, UniProt P08476 311-426, looked up)
Inhibin beta A chain: GLECDGKVNICCKKQFFVSFKDIGWNDWIIAPSGYHANYCEGECPSHIAGTSGSSLSFHSTVINHYRMRGHSPFANLKSCCVPTKLRPMSMLYYDDGQNIIKKDIQNMIVEECGCS
modifications: Inhibin beta A chain
generation of MITF and VSX2-positive cells (hESC [2]; [5]): negative effect
